Assay results from patent publication US9351974B2, “Substituted pteridinones for the treatment of cancer” (OSI Pharmaceuticals, LLC, priority 2011, dated 2016).

The compounds below were run against T1, His-tagged full-length RSK2 (RPS6KA3) (Homo sapiens, UniProt P51812) (assay: RSK2 Omnia Assay for compound IC50 determination). Conditions: ATP 15 μM, n=2, read-out: Mean RSK2 Biochem IC50.
T1 construct: His-tagged full-length RSK2 (RPS6KA3, Invitrogen PV3323); His; purchased Invitrogen PV3323
Assay type: biochemical
How it was run: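 Continuous fluorescence assay (ex 360/em 485 nm) of SOX-peptide (Omnia ST Peptide 6, 5 μM) phosphorylation with ATP 15 μM (Km 16.3 μM). Enzyme was […], in pH 7.5 HEPES/MgCl2 buffer with 1% DMSO. IC50 came from 11-point threefold dilutions ([…]) by four-parameter fit of initial slopes, in duplicate; Ki by Cheng-Prusoff assuming competitive inhibition.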

T1 sequence (P51812 whole entry): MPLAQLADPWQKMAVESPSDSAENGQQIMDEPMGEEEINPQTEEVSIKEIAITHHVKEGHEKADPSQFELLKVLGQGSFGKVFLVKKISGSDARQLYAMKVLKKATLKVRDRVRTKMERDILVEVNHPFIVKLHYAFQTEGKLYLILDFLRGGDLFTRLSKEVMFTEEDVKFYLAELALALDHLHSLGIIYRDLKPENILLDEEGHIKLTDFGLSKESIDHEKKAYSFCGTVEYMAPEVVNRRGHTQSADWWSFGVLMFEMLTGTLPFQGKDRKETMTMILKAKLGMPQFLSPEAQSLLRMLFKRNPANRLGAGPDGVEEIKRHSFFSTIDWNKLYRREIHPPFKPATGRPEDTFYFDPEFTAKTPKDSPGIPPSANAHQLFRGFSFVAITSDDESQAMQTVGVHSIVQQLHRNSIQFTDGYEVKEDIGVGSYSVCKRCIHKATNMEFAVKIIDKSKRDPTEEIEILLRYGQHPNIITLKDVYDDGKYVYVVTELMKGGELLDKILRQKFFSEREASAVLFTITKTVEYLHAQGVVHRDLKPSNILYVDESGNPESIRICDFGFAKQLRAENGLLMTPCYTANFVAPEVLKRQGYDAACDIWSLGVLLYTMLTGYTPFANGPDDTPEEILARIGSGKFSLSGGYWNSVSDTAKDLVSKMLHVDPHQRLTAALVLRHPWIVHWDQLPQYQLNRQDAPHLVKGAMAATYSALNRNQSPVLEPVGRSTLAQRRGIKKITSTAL

Question: How did the IC50 turn out when `COc1ccc(N2C(=O)[C@@H](C)N(C3CCCCC3)c3nc(Nc4cnc5[nH]ncc5c4)ncc32)cc1OC` [compound 153, (7R)-8-cyclohexyl-5-(3,4-dimethoxyphenyl)-7-methyl-2-(1H-pyrazolo[3,4-B]pyridin-5-ylamino)-7,8-dihydropteridin-6(5H)-one] was run?
Answer: The IC50 was ≤ 100 nM.

Question: How did the IC50 turn out when `COc1cc(Nc2ncc3c(n2)N(C2CCCCC2)[C@H](C)C(=O)N3c2cccc(C#N)c2)cc2cn[nH]c12` [compound 123, 3-[(7R)-8-cyclohexyl-2-[(7-methoxy-1H-indazol-5-yl)amino]-7-methyl-6-oxo-7,8-dihydropteridin-5(6H)-yl]benzonitrile] was run?
Answer: The IC50 was 100 to 1000 nM.

Question: Which IC50 does the source give for `C[C@@H]1C(=O)N(c2ccc[n+]([O-])c2)c2cnc(Nc3cc(F)c4[nH]ncc4c3)nc2N1C1CCCCC1` [Example 303, (7R)-8-cyclohexyl-2-[(7-fluoro-1H-indazol-5-yl)amino]-7-methyl-5-(1-oxidopyridin-3-yl)-7,8-dihydropteridin-6(5H)-one] here?
Answer: The IC50 was ≤ 100 nM.

Question: For `C[C@@H]1C(=O)N(c2ccc(N(C)C)cc2)c2cnc(Nc3ccc4[nH]ncc4c3)nc2N1C1CCCCC1` [Example 41, (7R)-8-cyclohexyl-5-[4-(dimethylamino)phenyl]-2-(1H-indazol-5-ylamino)-7-methyl-7,8-dihydropteridin-6(5H)-one], which IC50 is on record?
Answer: The IC50 was ≤ 100 nM.

Question: `COc1ccc(N2C(=O)[C@@H](C)N(C3CCCCC3)c3nc(Nc4cnc5[nH]ncc5c4)ncc32)cc1C#N` [compound 164, 5-[(7R)-8-cyclohexyl-7-methyl-6-oxo-2-(1H-pyrazolo[3,4-b]pyridin-5-ylamino)-7,8-dihydropteridin-5(6H)-yl]-2-methoxybenzonitrile] was tested. Which IC50 did it give?
Answer: The IC50 was ≤ 100 nM.

Question: Which IC50 does the source give for `C[C@@H]1C(=O)N(c2ccn(C)c(=O)c2)c2cnc(Nc3cnc4[nH]ncc4c3)nc2N1C1CCCCC1` [compound 175, (7R)-8-cyclohexyl-7-methyl-5-(1-methyl-2-oxo-1,2-dihydropyridin-4-yl)-2-(1H-pyrazolo[3,4-b]pyridin-5-ylamino)-7,8-dihydropteridin-6(5H)-one] here?
Answer: Its IC50 is ≤ 100 nM.

Question: How did the IC50 turn out when `C[C@@H]1C(=O)N(c2csc(C(=O)O)c2)c2cnc(Nc3ccc4[nH]ncc4c3)nc2N1C1CCCCC1` [compound 124, 4-[(7R)-8-cyclohexyl-2-(1H-indazol-5-ylamino)-7-methyl-6-oxo-7,8-dihydropteridin-5(6H)-yl]thiophene-2-carboxylic acid] was run?
Answer: Its IC50 is ≤ 100 nM.

Question: `COc1ccc(N2C(=O)[C@@H](C)N(C3CCCCC3)c3nc(Nc4ccc5[nH]ncc5c4)ncc32)cc1OC` [compound 111, (7R)-8-cyclohexyl-5-(3,4-dimethoxyphenyl)-2-(1H-indazol-5-ylamino)-7-methyl-7,8-dihydropteridin-6(5H)-one] was tested. Which IC50 did it give?
Answer: Its IC50 is ≤ 100 nM.

Question: Which IC50 does the source give for `COc1ccc(N2C(=O)[C@@H](C)N(C3CCC(=O)CC3)c3nc(Nc4cc(F)c5[nH]ncc5c4)ncc32)cc1OC` [compound 308, (7R)-5-(3,4-dimethoxyphenyl)-2-[(7-fluoro-1H-indazol-5-yl)amino]-7-methyl-8-(4-oxocyclohexyl)-7,8-dihydropteridin-6(5H)-one] here?
Answer: The IC50 was ≤ 100 nM.

Question: Which IC50 does the source give for `C[C@@H]1C(=O)N(c2ccc(N3CCN(C)CC3)nc2)c2cnc(Nc3cc(F)c4[nH]ncc4c3)nc2N1C1CCCCC1` [compound 139, (7R)-8-cyclohexyl-2-[(7-fluoro-1H-indazol-5-yl)amino]-7-methyl-5-[6-(4-methylpiperazin-1-yl)pyridin-3-yl]-7,8-dihydropteridin-6(5H)-one] here?
Answer: The IC50 was ≤ 100 nM.

Question: Which IC50 does the source give for `C[C@@H]1C(=O)N(c2cccc(Cl)c2)c2cnc(Nc3ccc4[nH]ncc4c3)nc2N1C1CCCCC1` [Example 31, (7R)-5-(3-chlorophenyl)-8-cyclohexyl-2-(1H-indazol-5-ylamino)-7-methyl-7,8-dihydropteridin-6(5H)-one] here?
Answer: The IC50 was ≤ 100 nM.

Question: For `C[C@@H]1C(=O)N(c2ccc(S(C)(=O)=O)cc2)c2cnc(Nc3ccc4[nH]ncc4c3)nc2N1C1CCCCC1` [Example 40, (7R)-8-cyclohexyl-2-(1H-indazol-5-ylamino)-7-methyl-5-[4-(methylsulfonyl)phenyl]-7,8-dihydropteridin-6(5H)-one], which IC50 is on record?
Answer: Its IC50 is ≤ 100 nM.

Question: Which IC50 does the source give for `C[C@@H]1C(=O)N(c2cccc(C#N)c2)c2cnc(Nc3ccc4[nH]ncc4c3)nc2N1CC1CCCC1` [Example 81, 3-[(7R)-8-(cyclopentylmethyl)-2-(1H-indazol-5-ylamino)-7-methyl-6-oxo-7,8-dihydropteridin-5(6H)-yl]benzonitrile] here?
Answer: The IC50 was ≤ 100 nM.

Question: Which IC50 does the source give for `C[C@@H]1C(=O)N(c2cccc(C#N)c2)c2cnc(Nc3cc(F)c4[nH]c(=O)oc4c3)nc2N1C1CCC(F)(F)CC1` [compound 277, 3-[(7R)-8-(4,4-difluorocyclohexyl)-2-[(4-fluoro-2-oxo-2,3-dihydro-1,3-benzoxazol-6-yl)amino]-7-methyl-6-oxo-7,8-dihydropteridin-5(6H)-yl]benzonitrile] here?
Answer: Its IC50 is ≤ 100 nM.

Question: With `C[C@@H]1C(=O)N(c2ccc(N3CCN(C)CC3)nc2)c2cnc(Nc3cc(F)c4[nH]ncc4c3)nc2N1C1CCOCC1` [compound 193, (7R)-2-[(7-fluoro-1H-indazol-5-yl)amino]-7-methyl-5-[6-(4-methylpiperazin-1-yl)pyridin-3-yl]-8-(tetrahydro-2H-pyran-4-yl)-7,8-dihydropteridin-6(5H)-one] as the compound, how does the IC50 read?
Answer: The IC50 was ≤ 100 nM.

Question: Which IC50 does the source give for `CC(C)CCN1c2nc(Nc3ccc(CS(=O)(=O)N(C)C)cc3)ncc2N(c2ccccc2)C(=O)C1C` (stereo not shown) [Example 8, N,N-dimethyl-1-(4-{[7-methyl-8-(3-methylbutyl)-6-oxo-5-phenyl-5,6,7,8-tetrahydropteridin-2-yl]amino}phenyl)methanesulfonamide] here?
Answer: Its IC50 is > 1000 nM.

Question: Which IC50 does the source give for `COc1ccc(N2C(=O)[C@@H](C)N(C3CCCCC3)c3nc(Nc4ccc5[nH]ncc5c4)ncc32)cc1` [Example 26, (7R)-8-cyclohexyl-2-(1H-indazol-5-ylamino)-5-(4-methoxyphenyl)-7-methyl-7,8-dihydropteridin-6(5H)-one] here?
Answer: The IC50 was ≤ 100 nM.

Question: With `[2H]C1([2H])C(N2c3nc(Nc4cc(F)c5[nH]ncc5c4)ncc3N(c3cccc(C#N)c3)C(=O)[C@H]2C)C([2H])([2H])C([2H])([2H])C([2H])([2H])C1([2H])[2H]` [compound 302, 3-[(7R)-8-[(2,2,3,3,4,4,5,5,6,6-2H10)cyclohexyl]-2-[(7-fluoro-1H-indazol-5-yl)amino]-7-methyl-6-oxo-7,8-dihydropteridin-5(6H)-yl]benzonitrile] as the compound, how does the IC50 read?
Answer: Its IC50 is ≤ 100 nM.

Question: `C[C@@H]1C(=O)N(c2cccc(C#N)c2)c2cnc(Nc3ccc4[nH]ncc4c3Cl)nc2N1C1CCCCC1` [compound 101, 3-[(7R)-2-[(4-chloro-1H-indazol-5-yl)amino]-8-cyclohexyl-7-methyl-6-oxo-7,8-dihydropteridin-5(6H)-yl]benzonitrile] was tested. Which IC50 did it give?
Answer: Its IC50 is > 1000 nM.

Question: With `CO[C@H]1CC[C@@H](N2c3nc(Nc4cc(F)c5[nH]ncc5c4)ncc3N(c3cccc(C#N)c3)C(=O)[C@H]2C)CC1` [compound 223, 3-[(7R)-2-[(7-fluoro-1H-indazol-5-yl)amino]-8-(cis-4-methoxycyclohexyl)-7-methyl-6-oxo-7,8-dihydropteridin-5(6H)-yl]benzonitrile] as the compound, how does the IC50 read?
Answer: Its IC50 is ≤ 100 nM.

Question: How did the IC50 turn out when `COc1n[nH]c2ccc(Nc3ncc4c(n3)N(C3CCCCC3)[C@H](C)C(=O)N4c3cccc(C#N)c3)cc12` [compound 116, 3-[(7R)-8-cyclohexyl-2-[(3-methoxy-1H-indazol-5-yl)amino]-7-methyl-6-oxo-7,8-dihydropteridin-5(6H)-yl]benzonitrile] was run?
Answer: The IC50 was ≤ 100 nM.

Question: For `COc1ccc(N2C(=O)[C@@H](C)N(C3CCOCC3)c3nc(Nc4cc(F)c5[nH]c(=O)oc5c4)ncc32)cc1C#N` [compound 203, 5-[(7R)-2-[(4-fluoro-2-oxo-2,3-dihydro-1,3-benzoxazol-6-yl)amino]-7-methyl-6-oxo-8-(tetrahydro-2H-pyran-4-yl)-7,8-dihydropteridin-5(6H)-yl]-2-methoxybenzonitrile], which IC50 is on record?
Answer: Its IC50 is ≤ 100 nM.

Question: For `CC1C(=O)N(c2ccccc2)c2cnc(Nc3ccc4[nH]ncc4c3)nc2N1C1CCCC1` (stereo not shown) [Example 64, 8-cyclopentyl-2-(1H-indazol-5-ylamino)-7-methyl-5-phenyl-7,8-dihydropteridin-6(5H)-one], which IC50 is on record?
Answer: Its IC50 is ≤ 100 nM.

Question: How did the IC50 turn out when `C[C@@H]1C(=O)N(c2cccc(C#N)c2)c2cnc(Nc3ccc4[nH]nc(F)c4c3F)nc2N1C1CCCCC1` [compound 144, 3-[(7R)-8-cyclohexyl-2-[(3,4-difluoro-1H-indazol-5-yl)amino]-7-methyl-6-oxo-7,8-dihydropteridin-5(6H)-yl]benzonitrile] was run?
Answer: Its IC50 is ≤ 100 nM.

Question: Which IC50 does the source give for `COc1ccc(N2C(=O)[C@@H](C)N(C3CCCCC3)c3nc(Nc4ccc5[nH]c(=O)oc5c4)ncc32)cc1C#N` [compound 165, 5-[(7R)-8-cyclohexyl-7-methyl-6-oxo-2-[(2-oxo-2,3-dihydro-1,3-benzoxazol-6-yl)amino]-7,8-dihydropteridin-5(6H)-yl]-2-methoxybenzonitrile] here?
Answer: Its IC50 is ≤ 100 nM.

Question: How did the IC50 turn out when `C[C@@H]1C(=O)N(c2ccc(N3CCCC3)nc2)c2cnc(Nc3cc(F)c4[nH]ncc4c3)nc2N1C1CCCCC1` [compound 141, (7R)-8-cyclohexyl-2-[(7-fluoro-1H-indazol-5-yl)amino]-7-methyl-5-[6-(pyrrolidin-1-yl)pyridin-3-yl]-7,8-dihydropteridin-6(5H)-one] was run?
Answer: The IC50 was ≤ 100 nM.

Question: `C[C@@H]1C(=O)N(c2cccc(C#N)c2)c2cnc(Nc3ccc4[nH]ncc4c3)nc2N1CC1CCOC1` (stereo partly drawn) [Example 82, 3-[(7R)-2-(1H-indazol-5-ylamino)-7-methyl-6-oxo-8-(tetrahydrofuran-3-ylmethyl)-7,8-dihydropteridin-5(6H)-yl]benzonitrile] was tested. Which IC50 did it give?
Answer: The IC50 was ≤ 100 nM.

Question: `CO[C@H]1CC[C@H](N2c3nc(Nc4cc(F)c5[nH]ncc5c4)ncc3N(c3cccc(C#N)c3)C(=O)[C@H]2C)CC1` [compound 224, 3-[(7R)-2-[(7-fluoro-1H-indazol-5-yl)amino]-8-(trans-4-methoxycyclohexyl)-7-methyl-6-oxo-7,8-dihydropteridin-5(6H)-yl]benzonitrile] was tested. Which IC50 did it give?
Answer: Its IC50 is ≤ 100 nM.
